One experiment relates to cleaved caspase-3. Description: Western blot time course of cleaved caspase-3 in OCILy10 and TMD8. To be noted: 1 μM AZD5991 for 8 hr, alone or after 24-hour pre-treatment with 100 nM acalabrutinib. It is filed as cell-based. The procedure: Two BTK inhibitor-sensitive ABC-DLBCL cell lines (OCILy10 and TMD8) were treated for an 8-hour time course with either 1 μM AZD5991 alone or following a 24-hour pre-treatment with 100 nM acalabrutinib (since exposure for 24 hours was sufficient to induce maximal BH3-only protein levels). Cells were harvested for protein lysates at varying time points (0, 0.5, 1, 2, 4, and 8 hours) post-AZD5991 treatment, normalized for protein concentration using the BCA Protein Assay Kit, and run for western blots according to standard protocols. To ensure expected target engagement of acalabrutinib, the blots were probed for the proximal biomarker for activated BTK (pBTK Y223). To gauge the time to induction of apoptosis, cleaved caspase-3 was also assessed. A loading control (vinculin) was also utilized for normalization.

The next experiment deals with OCILy10 tumor cells. Description: OCILy10 subcutaneous tumor model, efficacy study. Conditions: OCILy10 s.c. in C.B.-17 SCID mice; acalabrutinib 12.5 mg/kg po bid; AZD5991 IV once weekly. It is filed as in vivo, C.B.-17 SCID female mice. As to the method: 5×10^6 OCILy10 tumor cells were injected subcutaneously in the right flank of C.B.-17 SCID female mice in a volume of 0.1 mL containing 50% matrigel. Tumor volumes (measured by caliper), animal body weight, and tumor condition were recorded twice weekly for the duration of the studies. The tumor volume was calculated using the formula: length (mm)×width (mm)^2×0.52. For efficacy studies, growth inhibition from the start of treatment was assessed by comparison of the differences in tumor volume between control and treated groups. Dosing began when mean tumor size reached approximately 150-180 mm^3. CR=complete response. AZD5991 was formulated in 30% HPBCD (hydroxypropyl beta-cyclodextrin) in water for injection and adjusted to pH 9.0 up to a concentration of 30 mg/mL. AZD5991 was dosed IV once weekly. Acalabrutinib was formulated in 0.5% hydroxypropyl methyl cellulose/0.2% Tween 80, and dosed twice a day (bid) on an 8/16 hr split as an oral (po) administration at a volume of 10 mL/kg at a dose of 12.5 mg/kg.

Another experiment concerns Bim and Bmf. Description: Western blot of BH3-only protein levels in DLBCL cell lines. To be noted: 100 nM for 24 hours; OCILy10 and TMD8 relative to the insensitive cell line Karpas422. It is filed as cell-based. As to the method:
OCILy10, TMD8, and Karpas422 were treated with either vehicle or 100 nM acalabrutinib for 2-72 hours. Protein lysates were harvested at multiple time points in that interval, protein concentration was determined using the BCA Protein Assay Kit, and western blots were performed according to standard protocol to assess the effects on Bcl2 family protein levels. Each sample was normalized to vinculin as a loading control, and then protein levels of acalabrutinib-treated samples were calculated relative to those of vehicle-treated samples.
Each of the three cell lines were then treated with 100 nM acalabrutinib for 24 hours, and BH3-only protein levels were assessed. The levels of pro-apoptotic BH3-only proteins Bim and Bmf were increased in the two acalabrutinib-sensitive DLBCL cell lines relative to the insensitive cell line, priming the cells for apoptosis (FIG. 1). Acalabrutinib increases protein levels of pro-apoptotic proteins, including Bim and Bmf, in BTK inhibitor-sensitive DLBCL cell lines that leads to priming of cells for apoptosis. The results of Example 1 illustrate that diffuse large B-cell […] (DLBCL) cell lines display a differential sensitivity to acalabrutinib.
In general terms: Immunoblotting shows a protein as a band on a membrane.

The subject of a further experiment is OCILy10. Description: CellTiter-Glo viability, 72 hours. To be noted: Homo sapiens, OCI-Ly10, OCILy10, ABC-DLBCL. It is filed as cell-based. The procedure:
(§1) Two ABC-DLBCL (OCILy10 and TMD8) cell lines and one GCB-DLBCL (Karpas422) cell line were treated with either vehicle (DMSO) or a 10-point, ½ log serially dilution of acalabrutinib for 72 hours with a CellTiter-Glo viability readout.
Background: Cellular ATP, detected with luciferase, serves as a proxy for viable cell number.

Another experiment deals with Karpas422. Description: CellTiter-Glo viability, 72 hours. It is filed as cell-based. Conditions: Homo sapiens, KARPAS-422, Karpas422, GCB-DLBCL. As to the method:
as §1

The test system of a further experiment is TMD8. Description: CellTiter-Glo viability, 72 hours. To be noted: Homo sapiens, TMD8, ABC-DLBCL. It is filed as cell-based. The procedure: as §1

Here are results for two compounds from patent US20210030718A1, “COMBINATIONS FOR TREATING CANCER” (ASTRAZENECA AB, priority 2018, published 2021).

Some results are limits rather than exact numbers.

In the case of `Cc1c2c(nn1C)CSCc1cc(n(C)n1)CSc1cc(c3ccccc3c1)OCCCc1c(C(=O)O)n(C)c3c-2c(Cl)ccc13` (atropisomer, axis not shown; (Ra)) [AZD5991, (Ra)-17-chloro-5,13,14,22-tetramethyl-28-oxa-2,9-dithia-5,6,12,13,22-pentaazaheptacyclo[27.7.1.1^4,7.0^11,15.0^16,21.0^20,24.0^30,35]octatriaconta-1(37),4(38),6,11,14,16,18,20,23,29,31,33,35-tridecaene-23-carboxylic acid], the “induction of cleaved caspase” value in the experiment with cleaved caspase-3 is “no positive caspase activation”. In the experiment with OCILy10 tumor cells, this compound showed a tumor growth inhibition of 44%.
One may read the GI50 as the concentration giving 50% growth inhibition. Lower therefore signals greater sensitivity of the cells. In the case of `CC#CC(=O)N1CCC[C@H]1c1nc(-c2ccc(C(=O)Nc3ccccn3)cc2)c2c(N)nccn12` [acalabrutinib, (S)-4-(8-amino-3-(1-but-2-ynoylpyrrolidin-2-yl)imidazo[1,5-a]pyrazin-1-yl)-N-(pyridin-2-yl)benzamide], in the experiment on Bim and Bmf, the “levels of pro-apoptotic BH3-only proteins Bim and Bmf” value is “increased”. This compound also yielded a tumor growth inhibition in the experiment on OCILy10 tumor cells of 79%. Also, the GI50 in the experiment on OCILy10 is 0.01 µM; in the experiment with Karpas422, greater than 31 µM; in the experiment on TMD8, 0.06 µM.
